Assay results as given in the NIST ThermoML archive (doi:10.1021/je100423n).

Key:
[1] = Molar enthalpy of transition or fusion; conditions: Crystal; DSC
[2] = molar heat capacity at constant pressure; conditions: 101.33 kPa, Crystal

Cn1cc[n+](CCCCS(=O)(=O)[O-])c1 [4-(1-methyl-1H-imidazolium-3-yl)butane-1-sulfonate]
Conditions | Glass transition temperature [°C] | Normal melting temperature [°C] | molar heat capacity at constant pressure [J/K/mol]
Crystal, DTA | – | 235.83 | –
Glass, Adiabatic calorimetry | 30.46 | – | –
[2], 80.21 K | – | – | 109.32
[2], 82.3 K | – | – | 110.19
[2], 84.23 K | – | – | 111.45
[2], 86.16 K | – | – | 114.23
[2], 88.12 K | – | – | 115.88
[2], 90.06 K | – | – | 117.56
[2], 92.01 K | – | – | 118.29
[2], 93.95 K | – | – | 119.31
[2], 95.89 K | – | – | 120.93
[2], 97.83 K | – | – | 122.2
[2], 99.77 K | – | – | 123.74
[2], 102.48 K | – | – | 124.48
[2], 105.12 K | – | – | 126.89
[2], 107 K | – | – | 127.99
[2], 108.91 K | – | – | 129.52
[2], 110.85 K | – | – | 130.01
[2], 112.81 K | – | – | 131.16
[2], 114.75 K | – | – | 132.61
[2], 116.67 K | – | – | 133.57
[2], 118.61 K | – | – | 135.14
[2], 120.58 K | – | – | 137.07
[2], 122.53 K | – | – | 137.67
[2], 124.46 K | – | – | 138.87
[2], 126.38 K | – | – | 139.75
[2], 128.32 K | – | – | 140.75
[2], 130.3 K | – | – | 142.4
[2], 132.25 K | – | – | 144.69
[2], 134.2 K | – | – | 145.28
[2], 136.13 K | – | – | 145.45
[2], 138.04 K | – | – | 146.27
[2], 139.98 K | – | – | 147.32
[2], 141.94 K | – | – | 148.6
[2], 143.9 K | – | – | 150.42
[2], 145.84 K | – | – | 151.09
[2], 147.76 K | – | – | 152.25
[2], 149.67 K | – | – | 153.38
[2], 152.19 K | – | – | 153.72
[2], 154.71 K | – | – | 155.47
[2], 156.63 K | – | – | 157
[2], 158.54 K | – | – | 158.94
[2], 160.5 K | – | – | 159.74
[2], 162.51 K | – | – | 160.66
[2], 164.51 K | – | – | 162.3
[2], 166.5 K | – | – | 163.42
[2], 168.48 K | – | – | 163.25
[2], 170.44 K | – | – | 164.22
[2], 172.4 K | – | – | 166.07
[2], 174.34 K | – | – | 169.35
[2], 176.29 K | – | – | 169.43
[2], 178.22 K | – | – | 169.86
[2], 180.14 K | – | – | 172.46
[2], 182.06 K | – | – | 172.94
[2], 183.96 K | – | – | 173.45
[2], 185.91 K | – | – | 174.79
[2], 187.92 K | – | – | 176.2
[2], 189.92 K | – | – | 177.8
[2], 191.9 K | – | – | 179.25
[2], 193.89 K | – | – | 180.62
[2], 195.86 K | – | – | 181.69
[2], 197.82 K | – | – | 183.02
[2], 199.78 K | – | – | 184.59
[2], 202.16 K | – | – | 186.03
[2], 204.55 K | – | – | 188.92
[2], 206.52 K | – | – | 189.41
[2], 208.48 K | – | – | 190.86
[2], 210.43 K | – | – | 192.56
[2], 212.37 K | – | – | 193.16
[2], 214.31 K | – | – | 194.31
[2], 216.23 K | – | – | 195.92
[2], 218.15 K | – | – | 196.94
[2], 220.06 K | – | – | 198.36
[2], 221.95 K | – | – | 199.16
[2], 223.84 K | – | – | 200.4
[2], 225.81 K | – | – | 201.12
[2], 227.76 K | – | – | 203.49
[2], 229.69 K | – | – | 205.7
[2], 231.68 K | – | – | 206.8
[2], 233.67 K | – | – | 207.23
[2], 235.68 K | – | – | 210
[2], 237.67 K | – | – | 211.8
[2], 239.66 K | – | – | 212.72
[2], 242.01 K | – | – | 212.87
[2], 244.29 K | – | – | 213.82
[2], 246.26 K | – | – | 215.02
[2], 248.23 K | – | – | 216.05
[2], 250.19 K | – | – | 217.52
[2], 252.24 K | – | – | 219.72
[2], 254.3 K | – | – | 221.07
[2], 256.34 K | – | – | 222.28
[2], 258.38 K | – | – | 223.16
[2], 260.41 K | – | – | 224.41
[2], 262.43 K | – | – | 226.87
[2], 264.45 K | – | – | 228.3
[2], 266.45 K | – | – | 230.63
[2], 268.46 K | – | – | 233.04
[2], 270.45 K | – | – | 233.66
[2], 272.44 K | – | – | 235.64
[2], 274.42 K | – | – | 237.81
[2], 276.4 K | – | – | 239.51
[2], 278.38 K | – | – | 241.25
[2], 280.34 K | – | – | 243.42
[2], 282.3 K | – | – | 245.29
[2], 284.25 K | – | – | 246.94
[2], 286.19 K | – | – | 249.67
[2], 288.12 K | – | – | 252.87
[2], 290.04 K | – | – | 253.95
[2], 291.95 K | – | – | 254.73
[2], 293.85 K | – | – | 255.69
[2], 295.85 K | – | – | 257.59
[2], 297.85 K | – | – | 258.49
[2], 299.75 K | – | – | 260.96
[2], 301.74 K | – | – | 261.24
[2], 303.72 K | – | – | 264.66
[2], 305.71 K | – | – | 264.36
[2], 307.78 K | – | – | 264.22
[2], 309.84 K | – | – | 267.13
[2], 311.9 K | – | – | 269.55
[2], 313.95 K | – | – | 271.31
[2], 315.99 K | – | – | 273.57
[2], 318.03 K | – | – | 274.9
[2], 320.06 K | – | – | 276.18
[2], 322.09 K | – | – | 278.14
[2], 324.11 K | – | – | 279.41
[2], 326.12 K | – | – | 281.91
[2], 328.13 K | – | – | 283.31
[2], 330.13 K | – | – | 285.02
[2], 332.13 K | – | – | 286.68
[2], 334.12 K | – | – | 289.14
[2], 336.11 K | – | – | 290.13
[2], 338.09 K | – | – | 291.64
[2], 340.07 K | – | – | 293.16
[2], 342.04 K | – | – | 294.72
[2], 344 K | – | – | 297.82
[2], 345.96 K | – | – | 300.22
[2], 347.92 K | – | – | 301.67
[2], 349.87 K | – | – | 302.61
[2], 351.81 K | – | – | 304.94
[2], 353.75 K | – | – | 306.16
[2], 355.69 K | – | – | 308.54
[2], 357.62 K | – | – | 308.82
[2], 359.54 K | – | – | 310.24
[2], 361.47 K | – | – | 312.31
[2], 363.48 K | – | – | 313.02
[2], 365.48 K | – | – | 315.16
[2], 367.47 K | – | – | 315.19
[2], 369.54 K | – | – | 318.14
[2], 371.62 K | – | – | 320.13
[2], 373.68 K | – | – | 321.14
[2], 375.73 K | – | – | 323.95
[2], 377.79 K | – | – | 324.83
[2], 379.83 K | – | – | 325.26
[2], 381.87 K | – | – | 327.6
[2], 383.9 K | – | – | 332.07
[2], 385.94 K | – | – | 334
[2], 387.96 K | – | – | 335.27
[2], 389.98 K | – | – | 335.42
[2], 391.98 K | – | – | 337.63
[2], 393.99 K | – | – | 338.39
[2], 395.97 K | – | – | 341.92
[2], 397.96 K | – | – | 344.53

Conditions | Molar enthalpy of transition or fusion [kcal/mol]
[1] | 6.01
